Converted amounts (≈) assume the structure as drawn. Read-outs that look alike come from different tables or passages of the source.
Columns and labels:
[1] = type: in vitro ADME, human, rat, mouse, dog, monkey
Experimental: Samples were analyzed using UPLC-MS/MS.

[2] = Pharmacokinetics in Sprague Dawley rats; type: in vivo; details: male, rat; for Vd / clearance / AUC(0-inf) / Cmax / Tmax / bioavailability: in vivo; for Vd / clearance: iv; for AUC(0-inf) / Cmax / Tmax / bioavailability / half-life: po; for half-life: plasma, Rat
Experimental: Adult male C57BL/6 mice and Sprague Dawley rats were purchased from Charles River Laboratory (Wilmington, MA). PK studies for mice and rats were conducted at NIH animal facility (Bethesda, MD). In-life dog and monkey PK studies were conducted at Absorption System (San Diego, CA) and Frontage Labs (Concord, OH), respectively. Dogs and monkeys were fasted overnight prior to dose administrations. All experimental procedures were reviewed and approved by the Animal Care and Use Committee (ACUC) of the NIH Division of Veterinary Resources (DVR) or CRO labs for in-life studies.
Male Sprague–Dawley rats (n = 3 or 4 per treatment group, ∼ 343–375 g) were dosed in IV and PO dosing groups: 1 and 5 mg/kg IV, and 10, 30 and 100 mg/kg PO, respectively. Double cannulated rats (one catheter for IV dosing and another one for sampling) were used. Plasma samples were collected from jugular vein over 24 h. In bile duct cannulated (BDC) rat group, a single IV dose of 2 mg/kg was administered to three rats. Rat urine and bile samples were collected for the pre-dose, 0–4 h, 4–8 h, and 8–24 h time periods for BDC rats.
Blood samples from all groups and species were collected in K2EDTA tubes and stored on wet ice pending processing. Blood was centrifuged at 2200 g at 4°C for 10 min to isolate plasma. All samples were stored at -80°C until analysis.
Phoenix WinNonlin, version 8.1 (Certara, St. Louis, MO), was used to perform PK analysis with the non-compartmental approach (Models 200 and 201 for PO and IV datasets). The area under the plasma concentration vs. time curve (AUC) was calculated using the linear trapezoidal method. The terminal rate constant (λ) was obtained from the slope of at least three data points of the apparent terminal phase of the log-linear plasma concentration vs. time curve when available. AUC0–∞ was estimated as the sum of the AUC0–t (where t is the time of the last measurable concentration) and Ct/λ. The apparent terminal half-life (t½) was calculated as 0.693/λ. Bioavailability (F) was calculated using ratios of dose normalized AUC (AUC/Dose) obtained from PO and IV PK studies.

[3] = design: species or system human
Experimental: Allometric methods were used to predict human plasma clearance and volume of distribution ([Mahmood and Balian, 1996]; [Sharma and McNeill, 2009]). Human PK prediction was carried out with GastroPlus, version 9.6 (SimulationsPlus, Lancaster, CA)
To predict human exposures after oral administration, human PK parameters were estimated using allometric scaling and human PK profile was simulated using GastroPlus. The allometric scaling was performed as previously described ([Mahmood and Balian, 1996]).

[4] = physchem; details: for solubility thermodynamic: thermodynamic from solid
[5] = tested on: OCT1; details: cited from earlier work
[6] = tested on: OCT2; details: cited from earlier work
[7] = tested on: MATE1; details: cited from earlier work
[8] = 7-days dose range finding study in rats; details: oral, 7 days, 1,500 mg/kg/day

Q: With N#C[C@@]1(c2ccc3c(N)ncnn23)O[C@H](CO)[C@@H](O)[C@H]1O [GS-441524] as the compound, how does the “Stability in cytosolic fractions” value [1] read?
A: stable

Q: And the “Stability in liver microsomes” value [1]?
A: stable

Q: What about the Vd ([2]; 1 mg/kg) of the same compound?
A: 2.6 L/kg

Q: And the clearance ([2]; 1 mg/kg)?
A: 31 mL/min/kg

Q: And the Vd ([2]; 5 mg/kg)?
A: 2.2 ± 0.3 L/kg

Q: And the clearance ([2]; 5 mg/kg)?
A: 25 ± 1.6 mL/min/kg

Q: What about the AUC(0-inf) ([2]; 10 mg/kg) of the same compound?
A: 2170 ng·h/mL

Q: What about the Cmax ([2]; 10 mg/kg) of the same compound?
A: 193 ± 57 ng/mL

Q: And the Tmax ([2]; 10 mg/kg)?
A: 3.8 ± 2.4 h

Q: What about the bioavailability ([2]; 10 mg/kg) of the same compound?
A: 33 ± 9.8%

Q: And the AUC(0-inf) ([2]; 30 mg/kg)?
A: 4220 ng·h/mL

Q: What about the Cmax ([2]; 30 mg/kg) of the same compound?
A: 326 ± 77 ng/mL

Q: And the Tmax ([2]; 30 mg/kg)?
A: 3.8 ± 2.4 h

Q: What about the bioavailability ([2]; 30 mg/kg) of the same compound?
A: 21 ± 3.8%

Q: What about the AUC(0-inf) ([2]; 100 mg/kg) of the same compound?
A: 9560 ng·h/mL

Q: What about the Cmax ([2]; 100 mg/kg) of the same compound?
A: 825 ± 91 ng/mL

Q: And the Tmax ([2]; 100 mg/kg)?
A: 2.3 ± 1.3 h

Q: And the bioavailability ([2]; 100 mg/kg)?
A: 15 ± 3.2%

Q: What about the half-life ([2]; 10 mg/kg, PO 10 mg/kg, read-out: t1/2 (converted)) of the same compound?
A: 3.4 ± 0.2 h

Q: And the half-life ([2]; 30 mg/kg, PO 30 mg/kg, read-out: t1/2 (converted))?
A: 3.4 ± 0.2 h

Q: And the half-life ([2]; 100 mg/kg, PO 100 mg/kg, read-out: t1/2 (converted))?
A: 4.2 ± 1.8 h

Q: What about the half-life ([2]; 100 mg/kg, PO 10, 30 and 100 mg/kg, read-out: Half-life (t1/2)) of the same compound?
A: 3.4 to 4.2 h

Q: And the “Calculated human CLp as share of human hepatic blood flow” value ([3]; allometric scaling)?
A: approximately 10%

Q: And the “Predicted human CLp” value ([3]; allometric scaling from mouse, rat, monkey, dog)?
A: 2.7 mL/min/kg

Q: What about the “Predicted human Vdss” value ([3]; human) of the same compound?
A: 0.6 L/kg

Q: And the solubility thermodynamic ([4]; pH 1.6, simulated gastric fluid)?
A: > 1000 µg/mL

Q: What about the solubility thermodynamic ([4]; pH 2, aqueous buffer) of the same compound?
A: > 1000 µg/mL

Q: What about the solubility ([4]; pH 5) of the same compound?
A: 35 to 52 µg/mL (≈ 120 to 179 µM)

Q: What about the solubility thermodynamic ([4]; pH 5, aqueous buffer) of the same compound?
A: 52 µg/mL (≈ 179 µM)

Q: What about the solubility thermodynamic ([4]; pH 5.8, fessif) of the same compound?
A: 52 µg/mL (≈ 179 µM)

Q: And the solubility thermodynamic ([4]; pH 6.5, fassif)?
A: 35 µg/mL (≈ 120 µM)

Q: What about the solubility thermodynamic ([4]; pH 7.4, aqueous buffer) of the same compound?
A: 47 µg/mL (≈ 161 µM)

Q: What about the “Substrate of OCT1” value [5] of the same compound?
A: not a substrate

Q: And the “Substrate of OCT2” value [6]?
A: not a substrate

Q: And the “Substrate of MATE1” value [7]?
A: not a substrate

Q: What about the “Tolerability at maximum feasible dose” value [8] of the same compound?
A: well tolerated

From publication PMC9424906 (Frontiers in Pharmacology, 2022)
